# pIC50: −log10 of the molar value. Like-named read-outs stand apart in the source and are kept apart here.
# Tests used:
# HL-60 human leukemia = test: MTT in vitro cytotoxicity; conditions: read-out: IC50 value Leukemia HL-60
# U-937 lymphoma = test: MTT in vitro cytotoxicity; conditions: read-out: IC50 value Lymphoma U-937
# 502713 = test: SRB in vitro cytotoxicity, human tumor cell line; type: cell-based; conditions: 10^-5 M, Colon: 502713, read-out: growth inhibition
# Protocol: (§1) Compounds 3a-g were screened by sulforhodamine-B (SRB) semi-automated assay in a battery of cell lines. […] A., et. al. (1991); Feasibility high flux anticancer screen utilizing diverse panel of human tumor cell lines in culture. J Natl Cancer Inst. 83, 757-766]. Each compound was tested in triplicate sets of experiments at 10^-4 to 10^-6 M concentrations (Table 4).
# (§2) A stock solution of 2 x 10^-2M was prepared in DMSO. The stock solutions were serially diluted to obtain working test solutions with complete growth medium (RPMI-1640 medium with 2mM glutamine, 100µg/ml streptomycin, pH 7.4, sterilized by filtration and supplemented with 10% fetal bovine serum and 100 units/ml penicillin before use) containing 50 µg/ml of gentamycin to obtain working test solutions. The working test solutions were not filtered/ sterilized but microbial contamination was controlled by addition of gentamycin in complete growth medium used for dilution of stock solutions to prepare working test solutions.
# (§3) In vitro cytotoxicity against human cancer cell lines was determined^2 [Monk. A., et. al. (1991); Feasibility high flux anticancer screen utilizing diverse panel of human tumor cell lines in culture. J Natl Cancer Inst. 83, 757-766] using 96-well tissue culture plates. The cells were grown in tissue culture flasks in complete growth medium at 37°C in an atmosphere of 5% CO2 and 95% relative humidity in a carbon dioxide incubator. The cell suspension of required cell density (1-2 lakhs/ml) depending on the mass doubling time of cell lines was prepared in complete growth medium for determination of cytotoxicity. The aliquots of 100 µl of cell suspension were added to each well on a 96-well tissue culture plate. The blank wells contained complete medium in place of cell suspension. Simultaneously, control experiments with positive controls containing known anticancer agents were carried out. Cells were incubated for 24 hr.
# (§4) The test materials (100 µl in each well) were added after 24-hours to the wells containing cell suspension and blank wells. The cells were allowed to grow in presence of test material by further incubating the plates for 48 hours. At the end of incubation period the cell growth was stopped by gently layering trichloroacetic acid (50% TCA, 50µl/well) on top of the medium in all the wells. The plates were incubated at 4°C for 1 hr. The plates were washed five times with distilled water to remove TCA, growth medium, low molecular weight metabolites, serum proteins etc. and air-dried.
# (§5) The cell growth was measured^3 [Skehan, P, Storeng, R Scudiero, D, Monks, A, Mcmahon, J, Vistica, D, Warren, J.T., Bokesch, H., Kenney, S., Boyd, M.R. (1990). New colorimetric cytotoxicity assay for anti-cancer drug screening. J Natl Cancer Inst. 82: 1107-12] by staining with Sulphorhodamine B. Sulphorhodamine B (SRB, 0.4% in 1% acetic acid, 100 µl/well) was added to each well and plates were allowed to stand at room temperature for 30 minutes. The plates were washed with 1% acetic acid four times and then dried. Tris-HCl buffer (0.01 M, pH 10.5, 100 µl/well) was added to each well to solublise the dye. The plates were shaken gently for 10 minutes on a shaker and the optical density was recorded on ELISA reader at 540 nm. The cell growth was determined by subtracting mean OD value of respective blank from the mean OD value of experimental set. Percent growth in presence of test material was calculated considering the growth in absence of any test material as 100% and in turn percent growth inhibition in presence of test material was calculated. All the experiments were carried out in quadruplicate.
# HCT-15 = test: SRB in vitro cytotoxicity, human tumor cell line; type: cell-based; conditions: 10^-5 M, Colon: HCT-15, read-out: growth inhibition
# Protocol: as §1, §2, §3, §4, §5
# IMR-32 = test: SRB in vitro cytotoxicity, human tumor cell line; type: cell-based; conditions: 10^-5 M, Neuroblastoma: IMR-32, read-out: growth inhibition
# Protocol: as §1, §2, §3, §4, §5
# SW-620 = test: SRB in vitro cytotoxicity, human tumor cell line; type: cell-based; conditions: 10^-5 M, Colon: SW-620, read-out: growth inhibition
# Protocol: as §1, §2, §3, §4, §5
# HL-60 cells = test: Annexin V-FITC/PI flow cytometric analysis of apoptosis; type: cell-based, human; conditions: 24 h
# Protocol: Induction of apoptosis in vitro by Compound 3b and 3f was further determined in HL-60 cells by flow cytometric assay using an Annexin V-FITC Apoptosis Detection Kit (BD Biosciences Pharmingen, San Diego, USA). Camptothecin was included in the study for comparison. Exponentially growing HL-60 cells in complete RPMI-1640 media (100 µl of 5×10^6) were plated in six well plates. 10 µl of each Compound in DMSO (5 and 10 µM concentrations) was added to the wells followed by the addition of required media (total volume 1ml). Plates were incubated at 37°C for 24 h. The cells were centrifuged at room temperature at 1500 rpm for 5 min. The pellet was washed twice with cold PBS and was re-suspended in the binding buffer (1X, 100µl) provided in the Kit. The cells were stained with Annexin V-FITC (5 µl) and Propidium Iodide [PI] (5µl) and incubated for 15 min in the dark at 25°C. Next 400µl of binding buffer was added to each tube and analyzed on a FACScan flow cytometer (Becton Dickinson, Mountainview, CA) using Cell Quest software. Cells stained with both Annexin-V-FITC and PI, containing DMSO as vehicle was used as stained control. Cells that were annexin^+ /Pr [Lower right quadrant (LR)] and annexin^+/PI^+ [Upper right quadrant (UR)] were considered as early apoptotic and late apoptotic respectively.
# S-180 = test: In vivo anticancer activity: increase in median survival time; design: species or system Swiss albino male mice
# S-180 cells = test: 3H-thymidine and 3H-uridine incorporation in vitro (DNA and RNA synthesis)
# MOLT-4 cells [1] = test: Annexin V-FITC/PI flow cytometric analysis of apoptosis; type: cell-based, Human; conditions: 5µM, 6 hrs
# Protocol: Events of apoptosis were analyzed using Annexin V-FITC Apoptosis Detection Kit (A 2214 Sigma Aldrich, USA). Human leukemia Cells (MOLT-4, 1x10^6 cells/ml) in 6-well plate were treated with Compound 3f (3 and 5µg/ml), camptothecin (5µM) and incubated for 6 hrs. After incubation, the cells were centrifuged, rinsed with PBS twice and re-suspended in binding buffer (10 mM HEPES/NaOH, pH 7.5 containing 0.14M NaCl and 25 mM CaCl2). An aliquot (500 µl) of suspension was stained with of Annexin V-FITC (5 µl) and Propidium Iodide (10 µl). The cells were stored for 10 minutes at room temperature in the dark and then analyzed by BD-LSR flow cytometer (Becton Dickinson, USA) at two wavelengths to measure fluorescence for of Annexin V & PI binding at 515 and 639 nm.
# MOLT-4 cells [2] = test: Flow cytometric DNA cell cycle analysis (sub-G1 fraction); type: cell-based, Human; conditions: camptothecin 1µM, 3 hrs
# Protocol: Effect of DNA content by cell cycle phase distribution was assessed using MOLT-4 cells. […] The incubation period was 3 hrs in case of camptothecin and 24 hrs. in rest of the treatments. The cells were then washed twice with ice-cold PBS, harvested, fixed with ice-cold PBS in 70% ethanol, and stored at -20 °C for 30 min. After fixation, the cells were incubated with RNase A (0.1 mg/ml) at 37°C for 30 min, stained with propidium iodide (50 µg/ml) for 30 min on ice in dark, and then measured for DNA content using BD-LSR Flow cytometer (Becton Dickinson, USA) equipped with electronic doublet, discrimination capability using blue (488nm) excitation from argon laser. Data were collected in list mode on 10,000 events for FL2-A vs. FL2-W and analyzed using Mod Fit 2.0 software (Fig 4). […] The sub-G1 fractions for control and camptothecin were 0.64 (Fig. 4A) and 11.92 % (Fig. 4B).
# [3] = S-180, 30 mg/kg i.p., 7 injns., days 1-7
# [4] = S-180, 60 mg/kg i.p., 7 injns., days 1-7
# [5] = S-180, 60 mg/kg i.p., 7 injns., days 5-11
# [6] = S-180, 20 mg/kg i.p., 7 injns., days 1-7
# [7] = S-180, 6 mg/kg i.p., 7 injns., days 1-7
# [8] = S-180, 0.5 mg/kg i.p., 7 injns., days 1-7
# [9] = S-180, 1 mg/kg i.p., 7 injns., days 1-7
smiles,measurement,setting,value
"O=NN(CCCl)C(=O)NCCCl [BCNU, Bis (2-chloroethyl-nitrosourea)]",pIC50,"HL-60 human leukemia; MTT, 96 h",4.52
same,pIC50,"U-937 lymphoma; MTT, 96 h",4.91
N.N.[Cl][Pt][Cl] [Cis-Platinum],pIC50,"HL-60 human leukemia; MTT, 96 h",5.15
same,pIC50,"U-937 lymphoma; MTT, 96 h",5.49
"O=C1c2cccc3c([N+](=O)[O-])ccc(c23)C(=O)N1CCCl [Compound 3b, 6-Nitro-2-[2-(Chloroethyl)]-1H-benz[de]isoquinoline-1,3-dione]",inhibition at 10 µM,502713,> 50%
same,inhibition at 10 µM,HCT-15,> 50%
same,inhibition at 10 µM,IMR-32,> 50%
same,inhibition at 10 µM,SW-620,> 50%
same,"early apoptotic cells (Annexin V^+/PI^-), LR",HL-60 cells; 5 µM,4.5%
same,"late apoptotic cells (Annexin V^+/PI^+), UR",HL-60 cells; 5 µM,5.2%
same,total apoptotic cells (apoptotic cell population),HL-60 cells; 5 µM,9.7%
same,"early apoptotic cells (Annexin V^+/PI^-), LR",HL-60 cells; 10 µM,15.3%
same,"late apoptotic cells (Annexin V^+/PI^+), UR",HL-60 cells; 10 µM,33.5%
same,total apoptotic cells (apoptotic cell population),HL-60 cells; 10 µM,48.8%
same,MST,"S-180; S-180, 40 mg/kg i.p., 7 injns., days 1-7",20.5 days
same,MST,"S-180; S-180, 80 mg/kg i.p., 7 injns., days 1-7",23.0 days
same,pIC50,"HL-60 human leukemia; Homo sapiens, HL-60, 96 h",6.10
same,pIC50,"U-937 lymphoma; Homo sapiens, U-937, 96 h",6.18
"O=C1c2cccc3cc([N+](=O)[O-])cc(c23)C(=O)N1CCCCl [Compound 3g, 5-Nitro-2-[3-(Chloropropyl)]-1H-benz[de]isoquinoline-1,3-dione]",MST,S-180; [3],25.5 days
same,T/C %,S-180; [3],106%
same,MST,S-180; [4],24.0 days
same,T/C %,S-180; [4],129%
same,MST,S-180; [5],25.0 days
same,T/C %,S-180; [5],104%
"O=c1[nH]cc(F)c(=O)[nH]1 [Compound 5-FU, 5-fluorouracil, reference compound]",MST,S-180; [6],53.5 days
same,Survivors > 60 days,S-180; [6],3
same,T/C %,S-180; [6],233%
same,T/C %,"S-180; mouse, in vivo",233
same,pIC50,"HL-60 human leukemia; Homo sapiens, HL-60, 96 h",3.58
same,pIC50,"U-937 lymphoma; Homo sapiens, U-937, 96 h",5.33
"O=P1(N(CCCl)CCCl)NCCCO1 (stereo not shown) [Cyclophosphamide, reference compound]",MST,S-180; [7],33.0 days
same,T/C %,S-180; [7],143%
NC(=O)NO [Hydroxyurea],pIC50,"HL-60 human leukemia; Homo sapiens, HL-60, 96 h",3.69
same,pIC50,"U-937 lymphoma; Homo sapiens, U-937, 96 h",3.94
"CN(C)CCN1C(=O)c2cccc3cc([N+](=O)[O-])cc(c23)C1=O [Mitonafide, reference compound]",MST,S-180; [8],36.5 days
same,Survivors > 60 days,S-180; [8],1
same,T/C %,S-180; [8],187%
same,MST,S-180; [9],25.0 days
same,T/C %,S-180; [9],128%
same,inhibition at 8 µM,"S-180 cells; Mus musculus, S-180, read-out: DNA synthesis inhibition (3H-thymidine uptake)",93%
same,RNA synthesis inhibition (3H-uridine uptake),"S-180 cells; S-180 cells, 8 µM, 1 hr incubation, with respect to control",92%
"CC[C@@]1(O)C(=O)OCc2c1cc1n(c2=O)Cc2cc3ccccc3nc2-1 [camptothecin, reference compound]",total apoptotic cells,MOLT-4 cells [1],8.83%
same,sub-G1 fraction,MOLT-4 cells [2],11.92%
same,"early apoptotic cells (Annexin V^+/PI^-), LR",HL-60 cells; 5 µM,7.79%
same,"late apoptotic cells (Annexin V^+/PI^+), UR",HL-60 cells; 5 µM,5.46%
same,total apoptotic cells (apoptotic cell population),HL-60 cells; 5 µM,13.3%
same,"early apoptotic cells (Annexin V^+/PI^-), LR",HL-60 cells; 10 µM,10.52%
same,"late apoptotic cells (Annexin V^+/PI^+), UR",HL-60 cells; 10 µM,5.30%
same,total apoptotic cells (apoptotic cell population),HL-60 cells; 10 µM,15.8%

# Reference: patent publication EP2118065B1, “Substituted 1H-benz[de]isoquinoline-1,3-diones” (priority 2007, dated 2008)
